Test results: US9180129B2, “Combination of lapatinib and trametinib” (NOVARTIS AG, priority 2010, dated 2015)
Where two headings read alike, the source gives them in different places.

Tests used:
[1] = tested on: SUIT2; experiment: Cell growth inhibition assay, SUIT2 (pancreatic); format: cell-based; conditions: Homo sapiens, SUIT-2, 72 h, 3 days, read-out: Single agent IC50 (μM), mean ± STD
Description: (§1) All lines were kept in a humidified incubator at 37° C. in 95% air and 5% CO2. JIMT-1 is a cell line established from a tumor of a patient with trastuzumab-resistant breast cancer (Tanner et al, Mol Cancer Ther 2004; 3:1585-92).
(§2) All cells were cultured for a minimum of 72 hours prior to cell plating. Cells were seeded in a 96-well tissue culture plate (NUNC 136102) of RPMI media containing 10% FBS for all cell lines at 2,000 cells per well except KPL4, which was plated in DMEM containing 5% FBS at 500 cells per well. […] Cells were incubated in the presence of compounds for 3 days. ATP levels were determined by adding Cell Titer Glo® reagent (Promega) according to the manufacturer's protocol. Briefly, Cell Titer Glo® reagent was added to each plate, incubated for 20 minutes then the luminescent signal was read on the SpectraMax L plate reader with a 0.5 sec integration time.
(§3) Inhibition of cell growth was estimated after treatment with compound or a combination of compounds for three days and comparing the signal to cells treated with vehicle (DMSO). Cell growth was calculated relative to vehicle (DMSO) treated control wells. […]

[2] = tested on: AU565; experiment: Cell growth inhibition assay, AU565 (breast HER2+); format: cell-based; conditions: Homo sapiens, AU565, 72 h, 3 days, read-out: Single agent IC50 (μM), mean ± STD
Description: as §1, §2, §3

[3] = tested on: BT474-J4; experiment: Cell growth inhibition assay, BT474-J4 (breast HER2+, acquired resistance to Compound A); format: cell-based; conditions: Homo sapiens, 72 h, 3 days, read-out: Single agent IC50 (μM), mean ± STD
Description: as §1, §2, §3

[4] = tested on: MDA-MB-453; experiment: Cell growth inhibition assay, MDA-MB-453 (breast HER2+); format: cell-based; conditions: Homo sapiens, 72 h, 3 days, read-out: Single agent IC50 (μM), mean ± STD
Description: as §1, §2, §3

[5] = tested on: SKBR3; experiment: Cell growth inhibition assay, SKBR3 (breast HER2+); format: cell-based; conditions: Homo sapiens, SK-BR-3, 72 h, 3 days, read-out: Single agent IC50 (μM), mean ± STD
Description: as §1, §2, §3

[6] = tested on: NCI-H508; experiment: Cell growth inhibition assay, NCI-H508 (colorectal); format: cell-based; conditions: Homo sapiens, 72 h, 3 days, read-out: Single agent IC50 (μM), mean ± STD
Description: as §1, §2, §3

[7] = tested on: JimT-1; experiment: Cell growth inhibition assay, JimT-1 (breast HER2+, trastuzumab-resistant); format: cell-based, Human; conditions: for IC50: Homo sapiens, 72 h, JimT-1, 3 days, read-out: Single agent IC50 (μM), mean ± STD; for sensitivity to cell growth inhibition, in words: JIMT-1 HER2+ breast cancer line
Description: as §1, §2
(§4) Inhibition of cell growth was estimated after treatment with compound or a combination of compounds for three days and comparing the signal to cells treated with vehicle (DMSO). Cell growth was calculated relative to vehicle (DMSO) treated control wells. A concentration of the compound that inhibits 50% of control cell growth (IC50) was interpolated using nonlinear regression with the equation, y=(A+(B−A)/(1+(C/x)^D)))), where A is the minimum response (ymin), B is the maximum response (ymax), C is the inflection point of the curve (EC50) and D is the Hill coefficient. […]

[8] = tested on: SW780; experiment: Cell growth inhibition assay, SW780 (bladder); format: cell-based; conditions: Homo sapiens, 72 h, 3 days, read-out: Single agent IC50 (μM), mean ± STD
Description: as §1, §2, §3

[9] = tested on: HCC2218; experiment: Cell growth inhibition assay, HCC2218 (breast HER2+); format: cell-based; conditions: Homo sapiens, HCC2218, 72 h, 3 days, read-out: Single agent IC50 (μM), mean ± STD
Description: as §1, §2, §3

[10] = tested on: LS174T; experiment: Cell growth inhibition assay, LS174T (colorectal); format: cell-based; conditions: Homo sapiens, 72 h, 3 days, read-out: Single agent IC50 (μM), mean ± STD
Description: as §1, §2, §3

[11] = tested on: HPAF-11; experiment: Cell growth inhibition assay, HPAF-11 (pancreatic); format: cell-based; conditions: Homo sapiens, 72 h, 3 days, read-out: Single agent IC50 (μM), mean ± STD
Description: as §1, §2, §3

[12] = tested on: BT474; experiment: Cell growth inhibition assay, BT474 (breast HER2+); format: cell-based; conditions: Homo sapiens, BT-474, 72 h, 3 days, read-out: Single agent IC50 (μM), mean ± STD
Description: as §1, §2, §3

[13] = tested on: five colorectal cancer cell lines; experiment: Cell growth inhibition assay, colorectal lines; format: cell-based; conditions: Homo sapiens; span over the five colorectal cancer cell lines of Table 1; read-out: IC50 values, single agent
[14] = tested on: SW403; experiment: Cell growth inhibition assay, SW403 (colorectal); format: cell-based; conditions: Homo sapiens, SW-403, 72 h, 3 days, read-out: Single agent IC50 (μM), mean ± STD
Description: as §1, §2, §3

[15] = tested on: KPL4; experiment: Cell growth inhibition assay, KPL4 (breast HER2+); format: cell-based; conditions: Homo sapiens, KPL4, 72 h, 3 days, read-out: Single agent IC50 (μM), mean ± STD
Description: All cells were cultured for a minimum of 72 hours prior to cell plating. […] Cells were incubated in the presence of compounds for 3 days.
Cell growth was calculated relative to vehicle (DMSO) treated control wells.
In general, a CI value <0.9, between 0.9 and 1.1, or >1.1 indicates synergy, additivity and antagonism, respectively. In general, the smaller the CI number, the greater is the strength of synergy.

[16] = tested on: BFTC-905; experiment: Cell growth inhibition assay, BFTC-905 (bladder); format: cell-based; conditions: Homo sapiens, 72 h, 3 days, read-out: Single agent IC50 (μM), mean ± STD
Description: as §1, §2, §3

[17] = tested on: BT474; experiment: Cell apoptosis assay, DNA fragmentation, BT474; format: cell-based, Human; conditions: 48 hours, Roche Cell Death ELISA, combination at 2 to 1 molar ratio A:B (FIG. 2B)
Description: as §1
(§5) For investigation of the induction of apoptosis, cells were plated at 5,000 cells per well in a 96-well tissue culture plate and allowed to attach for approximately 24 hours. Forty-eight hours after treatment with compounds, levels of apoptosis were estimated using the Roche Cell Death ELISA kit (Cat. No. 11 774 425 001) following the instructions provided by the manufacturer.
(§6) FIG. 1. Dose response curves of cell growth inhibition in HCC1954, MDA-MB-175VII, CHL1 and BFTC-905.

[18] = tested on: HER2 positive (HER2+) breast tumor lines; experiment: Cell growth inhibition assay, text summary over HER2+ breast lines; format: cell-based; conditions: Homo sapiens; the HER2+ breast cancer lines listed in Table 1; read-out: IC50 as a single agent
Description: as §1, §2, §3

[19] = tested on: 647V; experiment: Cell growth inhibition assay, 647V (bladder); format: cell-based; conditions: Homo sapiens, 72 h, 3 days, read-out: Single agent IC50 (μM), mean ± STD
Description: as §1, §2, §3

[20] = tested on: NCI-H747; experiment: Cell growth inhibition assay, NCI-H747 (colorectal); format: cell-based; conditions: Homo sapiens, 72 h, 3 days, read-out: Single agent IC50 (μM), mean ± STD
Description: as §1, §2, §3

[21] = tested on: SKMEL5; experiment: Cell growth inhibition assay, SKMEL5 (melanoma); format: cell-based, Human; conditions: 3 days, read-out: Single agent IC50 (μM), mean ± STD
Description: as §1, §2, §4

[22] = tested on: HCC1954; experiment: Cell growth inhibition assay, HCC1954 (breast HER2+); format: cell-based; conditions: Homo sapiens, 72 h, 3 days, read-out: Single agent IC50 (μM), mean ± STD
Description: as §1, §2, §3

[23] = tested on: CHL1; experiment: Cell growth inhibition assay, CHL1 (melanoma); format: cell-based; conditions: Homo sapiens, CHL-1, 72 h, 3 days, read-out: Single agent IC50 (μM), mean ± STD
Description: as §1, §2, §3

[24] = tested on: Capan-1; experiment: Cell growth inhibition assay, Capan-1 (pancreatic); format: cell-based; conditions: Homo sapiens, 72 h, 3 days, read-out: Single agent IC50 (μM), mean ± STD
Description: as §1, §2, §3

[25] = tested on: BT474-J4; experiment: Cell apoptosis assay, DNA fragmentation, BT474-J4; format: cell-based, Human; conditions: 48 hours, Roche Cell Death ELISA, combination at 2 to 1 molar ratio A:B (FIG. 2B)
Description: as §1, §5, §6

[26] = tested on: HCC1419; experiment: Cell growth inhibition assay, HCC1419 (breast HER2+); format: cell-based; conditions: Homo sapiens, HCC1419, 72 h, 3 days, read-out: Single agent IC50 (μM), mean ± STD
Description: as §1, §2, §3

[27] = tested on: T84; experiment: Cell growth inhibition assay, T84 (colorectal); format: cell-based; conditions: Homo sapiens, 72 h, 3 days, read-out: Single agent IC50 (μM), mean ± STD
Description: as §1, §2, §3

[28] = tested on: three pancreatic cancer cell lines; experiment: Cell growth inhibition assay, pancreatic lines; format: cell-based, Human; conditions: HPAF-11, Capan-1 and SUIT2
Description: as §1, §2, §3

[29] = tested on: A375 S2; experiment: Cell growth inhibition assay, A375 S2 (melanoma); format: cell-based; conditions: Homo sapiens, A375-S2, 72 h, 3 days, read-out: Single agent IC50 (μM), mean ± STD
Description: as §1, §2, §3

[30] = tested on: MDAMB175VII; experiment: Cell growth inhibition assay, MDAMB175VII (breast HER2−); format: cell-based; conditions: Homo sapiens, MDA-MB-175-VII, 72 h, 3 days, read-out: Single agent IC50 (μM), mean ± STD
Description: as §1, §2, §3

[31] = tested on: SUM149; experiment: Cell growth inhibition assay, SUM149 (breast HER2−); format: cell-based; conditions: Homo sapiens, SUM149, 72 h, 3 days, read-out: Single agent IC50 (μM), mean ± STD
Description: as §1, §2, §3

IC50 [3] [µM] | IC50 [4] [µM] | IC50 [6] [µM] | IC50 [8] [µM] | IC50 [13] [nM] | IC50 [14] [µM] | IC50 [20] [µM] | IC50 ([21]; Homo sapiens, SK-MEL-5, 72 h) [µM] | IC50 [22] [µM] | IC50 [23] [µM] | Compound | IC50 [1] [µM] | IC50 [7] [µM] | sensitivity to cell growth inhibition, in words [7] | IC50 [10] [µM] | IC50 [11] [µM] | IC50 [15] [µM] | IC50 [16] [µM] | apoptosis induction determined by DNA fragmentation [17] | IC50 [19] [µM] | IC50 [24] [µM] | further results
> 1 | > 1 | 0.019 ± 0.005 | 0.07 ± 0.042 | 3 to 99 | 0.005 ± 0.004 | 0.003 ± 0.002 | ≤ 0.003 | > 1 | 0.461 ± 0.382 | CC(=O)Nc1cccc(-n2c(=O)n(C3CC3)c(=O)c3c(Nc4ccc(I)cc4F)n(C)c(=O)c(C)c32)c1 [Compound B, N-{3-[3-cyclopropyl-5-(2-fluoro-4-iodo-phenylamino)-6,8-dimethyl-2,4,7-trioxo-3,4,6,7-tetrahydro-2H-pyrido[4,3-d]pyrimidin-1-yl]phenyl}acetamide] | 0.196 ± 0.269 | > 1 | resistant | 0.099 ± 0.053 | 0.059 ± 0.03 | > 1 | 0.012 ± 0.003 | not active to induce apoptosis | > 1 | 0.086 ± 0.007 | IC50 [2]: > 1 µM; IC50 [5]: > 1 µM; IC50 [9]: > 1 µM; IC50 [12]: > 1 µM; IC50 [18]: > 1000 nM; IC50 [21]: 0.003 µM; apoptosis induction determined by DNA fragmentation [25]: not active to induce apoptosis; IC50 [26]: > 1 µM; IC50 [27]: 0.075 ± 0.039 µM; sensitivity as single agents, in words [28]: sensitive
> 10 | 4.48 ± 1.47 | 0.149 ± 0.205 | 4.11 ± 1.39 | 149 to 7180 | 5.36 ± 1.55 | 2.64 ± 1.75 | 4.74 ± 1.08 | 2.41 ± 1.57 | 0.138 ± 0.004 | CS(=O)(=O)CCNCc1ccc(-c2ccc3ncnc(Nc4ccc(OCc5cccc(F)c5)c(Cl)c4)c3c2)o1 [Compound A, N-{3-Chloro-4-[(3-fluorobenzyl)oxy]phenyl}-6-[5-({[2-(methanesulphonyl)ethyl]amino}methyl)-2-furyl]-4-quinazolinamine] | > 10 | > 10 | resistant | 7.18 ± 3.93 | 10.5 ± 2.77 | < 1 | 4.28 ± 0.073 | induced apoptosis | > 10 | > 10 | IC50 [29]: > 10 µM; IC50 [30]: 0.146 ± 0.035 µM; IC50 [31]: 4.73 ± 1.37 µM; IC50 [27]: 4.28 ± 1.35 µM; sensitivity as single agents, in words [28]: resistant
